From ChEMBL document CHEMBL1201862, “PubChem BioAssay data set” (2004)
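Briefly, cells in 96-well plates were exposed to five compound concentrations for 48 h, and endpoints were estimated by linear interpolation. The concentration for 50% growth inhibition is given as GI50.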 Calls of active or inactive are those of the source. Rule as the data show it: active = GI50 up to about 1.1 µM and inactive = higher.

Tests used:
Test in all cases: NCI anticancer screen, dose series, 48 h
786-0 = system: 786-0
COLO 205 = system: COLO 205
HCT-116 = system: HCT-116
HOP-62 = system: HOP-62
IGROV-1 = system: IGROV-1
KM12 = system: KM12
LOX IMVI = system: LOX IMVI
MOLT-4 = system: MOLT-4
OVCAR-5 = system: OVCAR-5
SF-268 = system: SF-268
SN12C = system: SN12C
SNB-19 = system: SNB-19
SW-620 = system: SW-620
T47D = system: T47D
U-251 = system: U-251
UO-31 = system: UO-31
A498 = system: A498
CAKI-1 = system: CAKI-1
SR = system: SR

Measured: GI50

CC1=CCC(C(C)(C)NC(=O)c2ccccc2)C/C1=N/O (centres undefined)
inactive: 786-0 > 100 µM | COLO 205 > 100 µM | HCT-116 > 100 µM | HOP-62 > 100 µM | IGROV-1 > 100 µM | KM12 > 100 µM | LOX IMVI > 100 µM | MOLT-4 > 100 µM | OVCAR-5 > 100 µM | SF-268 > 100 µM | SN12C > 100 µM | SNB-19 > 100 µM | SW-620 > 100 µM | T47D > 100 µM | U-251 > 100 µM | UO-31 > 100 µM

C(=N/c1ccccc1C1SCCCS1)/c1ccccc1
inactive: 786-0 > 100 µM | A498 > 100 µM | CAKI-1 > 100 µM | COLO 205 > 100 µM | HCT-116 > 100 µM | HOP-62 > 100 µM | IGROV-1 > 100 µM | KM12 > 100 µM | LOX IMVI > 100 µM | MOLT-4 > 100 µM | OVCAR-5 > 100 µM | SF-268 > 100 µM | SN12C > 100 µM | SNB-19 > 100 µM | SW-620 > 100 µM | U-251 > 100 µM | UO-31 > 100 µM

Cc1nc2c(O)cc3c4c(n(Cc5ccccc5)c3c2nc1C)C(=O)CCC4
inactive: 786-0 15.1 µM | A498 34 µM | COLO 205 83 µM | HCT-116 34.4 µM | HOP-62 12.7 µM | KM12 > 100 µM | LOX IMVI 64.1 µM | MOLT-4 > 100 µM | OVCAR-5 > 100 µM | SF-268 4.71 µM | SN12C > 100 µM | SNB-19 23.3 µM | SR 18 µM | SW-620 > 100 µM | U-251 12 µM | UO-31 56 µM

COC(=O)C(COC(=O)/C=C/c1ccc(OC(C)=O)c(OC(C)=O)c1)OC(=O)/C=C/c1ccc(OC(C)=O)c(OC(C)=O)c1 (centres undefined)
inactive: 786-0 11.8 µM | A498 16.5 µM | CAKI-1 6.87 µM | COLO 205 15.9 µM | HCT-116 4.14 µM | HOP-62 10.2 µM | IGROV-1 4.94 µM | KM12 12 µM | LOX IMVI 5.16 µM | MOLT-4 1.95 µM | OVCAR-5 13 µM | SF-268 12.4 µM | SN12C 14.6 µM | SNB-19 8.32 µM | SR 3.01 µM | SW-620 6.27 µM | U-251 4.62 µM | UO-31 10 µM

CC(C)(CN1CCCCC1)C(=O)CC(SCCS(=O)(=O)O)c1ccc(Cl)cc1 (centres undefined)
inactive: 786-0 3.31 µM | A498 4.26 µM | CAKI-1 6.73 µM | COLO 205 2.86 µM | HCT-116 3.03 µM | HOP-62 11.5 µM | IGROV-1 6.15 µM | KM12 4.31 µM | MOLT-4 2.92 µM | OVCAR-5 1.86 µM | SN12C 4.56 µM | SNB-19 14.8 µM | SR 2.18 µM | SW-620 4.1 µM | U-251 10.5 µM | UO-31 4.86 µM

Cc1cc(C)nc(NS(=O)(=O)c2ccc(NC(=O)c3c4ccccc4nc4ccccc34)cc2)n1
inactive: 786-0 49 µM | A498 > 100 µM | CAKI-1 87.3 µM | COLO 205 75.2 µM | HCT-116 68.4 µM | HOP-62 61.7 µM | IGROV-1 31.2 µM | KM12 47 µM | LOX IMVI 81.1 µM | MOLT-4 > 100 µM | OVCAR-5 > 100 µM | SF-268 > 100 µM | SN12C > 100 µM | SNB-19 > 100 µM | SR > 100 µM | SW-620 > 100 µM | U-251 69.3 µM | UO-31 37.4 µM

Cc1ccc(C(=O)O)cc1S(=O)(=O)Nn1cnc2ccc(S(=O)(=O)Nc3ccccc3C(=O)O)cc2c1=O
inactive: 786-0 > 100 µM | CAKI-1 > 100 µM | COLO 205 31.6 µM | HCT-116 46.1 µM | HOP-62 > 100 µM | IGROV-1 60.7 µM | KM12 10.9 µM | LOX IMVI > 100 µM | MOLT-4 > 100 µM | OVCAR-5 54.6 µM | SF-268 > 100 µM | SN12C > 100 µM | SNB-19 > 100 µM | SR > 100 µM | SW-620 > 100 µM | U-251 > 100 µM | UO-31 46.1 µM

CCOC(=O)c1c2ccccc2n2c(=O)n(-c3ccccc3)nnc12
inactive: 786-0 62.4 µM | A498 > 21.2 µM | CAKI-1 > 91.4 µM | COLO 205 40.7 µM | HCT-116 73.8 µM | HOP-62 27.5 µM | IGROV-1 79.3 µM | KM12 61 µM | LOX IMVI 7.93 µM | OVCAR-5 > 100 µM | SF-268 > 100 µM | SN12C > 100 µM | SNB-19 > 100 µM | SW-620 > 100 µM | T47D 9.08 µM | U-251 98.4 µM | UO-31 74.8 µM

CCSc1n/c(=C\c2ccco2)c2nncn12
inactive: 786-0 > 100 µM | COLO 205 > 100 µM | HCT-116 > 100 µM | HOP-62 > 100 µM | IGROV-1 > 100 µM | KM12 > 100 µM | LOX IMVI > 100 µM | MOLT-4 > 100 µM | OVCAR-5 > 100 µM | SF-268 > 100 µM | SN12C > 100 µM | SNB-19 > 100 µM | SR > 100 µM | SW-620 > 100 µM | U-251 > 100 µM | UO-31 > 100 µM

O=C(O)C(O)C(O)C(O)C(O)c1nc2ccccc2s1 (centres undefined)
inactive: 786-0 16.8 µM | A498 24.6 µM | CAKI-1 17.7 µM | COLO 205 34.8 µM | HCT-116 16.1 µM | HOP-62 18.3 µM | IGROV-1 10.9 µM | KM12 24.7 µM | LOX IMVI 16.9 µM | OVCAR-5 26.9 µM | SF-268 14.9 µM | SN12C 18.7 µM | SNB-19 20.1 µM | SW-620 22.3 µM | T47D 19.5 µM | U-251 15.7 µM | UO-31 15.9 µM

CCOc1ccc(N/C(=C(/C(Cl)=C(/Cl)NCCO)[N+](=O)[O-])n2nnc3ccccc32)cc1
inactive: 786-0 29.6 µM | A498 31 µM | CAKI-1 14.4 µM | COLO 205 16.1 µM | HCT-116 37.7 µM | HOP-62 66.7 µM | KM12 24.8 µM | MOLT-4 5.96 µM | OVCAR-5 35.6 µM | SF-268 20.1 µM | SN12C 19.8 µM | SNB-19 51.1 µM | SW-620 19.2 µM | T47D 18.2 µM | U-251 21.8 µM | UO-31 19.5 µM

COC(=O)[C@]1(c2cc3ccccc3n2S(=O)(=O)c2ccccc2)CC2CN(C(=O)OCc3ccccc3)C1C1OC(C)(C)OC21 (some centres undefined)
inactive: 786-0 > 100 µM | CAKI-1 > 100 µM | COLO 205 > 100 µM | HCT-116 > 100 µM | HOP-62 > 100 µM | IGROV-1 > 100 µM | KM12 > 100 µM | LOX IMVI > 100 µM | MOLT-4 > 100 µM | OVCAR-5 > 100 µM | SN12C > 100 µM | SW-620 > 100 µM | U-251 > 100 µM | UO-31 > 100 µM

O=c1oc(-c2ccc(O)cc2)cc2cc(O)ccc12
inactive: 786-0 39.4 µM | A498 14.7 µM | CAKI-1 29.1 µM | COLO 205 20.2 µM | HCT-116 21.2 µM | HOP-62 34.8 µM | IGROV-1 19.9 µM | KM12 24.8 µM | MOLT-4 18.5 µM | OVCAR-5 43.2 µM | SF-268 26.5 µM | SN12C 17.2 µM | SNB-19 20.6 µM | SW-620 25.7 µM | T47D 19.9 µM | UO-31 13.3 µM

O=C1[C@@H]2C(c3ccccc3[N+](=O)[O-])=NO[C@@H]2C(=O)N1c1ccc(Cc2ccc(N3C(=O)[C@H]4C(c5ccccc5[N+](=O)[O-])=NO[C@H]4C3=O)cc2)cc1
inactive: 786-0 > 100 µM | A498 > 100 µM | CAKI-1 > 100 µM | COLO 205 > 100 µM | HCT-116 > 100 µM | HOP-62 > 100 µM | IGROV-1 > 100 µM | KM12 > 100 µM | LOX IMVI > 100 µM | MOLT-4 > 100 µM | OVCAR-5 > 100 µM | SF-268 > 100 µM | SN12C > 100 µM | SNB-19 > 100 µM | SR > 100 µM | SW-620 > 100 µM | U-251 > 100 µM | UO-31 > 100 µM

COc1ccc(-c2onc(-c3c(C)cc(C)cc3C)c2C2=NCCCN2)cc1
inactive: 786-0 31.8 µM | CAKI-1 13.6 µM | COLO 205 27.7 µM | HCT-116 28 µM | HOP-62 > 100 µM | IGROV-1 > 100 µM | KM12 46.3 µM | LOX IMVI 43.3 µM | MOLT-4 41 µM | OVCAR-5 > 100 µM | SF-268 36.7 µM | SN12C 50.8 µM | SNB-19 35.1 µM | SR 36.6 µM | SW-620 46.2 µM | U-251 22.3 µM | UO-31 21.1 µM

CC1=CC(=O)/C(=C/Nc2nc(-c3cccc([N+](=O)[O-])c3)cs2)C(=O)O1
inactive: 786-0 30.8 µM | CAKI-1 24.8 µM | COLO 205 85.7 µM | HCT-116 37.7 µM | HOP-62 > 100 µM | IGROV-1 38.4 µM | KM12 47.2 µM | LOX IMVI 39.2 µM | OVCAR-5 > 100 µM | SN12C 66.5 µM | SNB-19 > 100 µM | SW-620 43.4 µM | T47D 77.1 µM | U-251 63.1 µM | UO-31 29.9 µM
